Patent publication US9206209B2, “Nucleotide analogue, method of synthesis of nucleotide analogue, use of nucleotide analogue, antiviral pro-nucleotide, pharmaceutical composition” (priority 2010, dated 2015)
Like-named read-outs stand apart in the source and are kept apart here.

Legend:
CEM-T4 cells [1] = assay: Cytotoxicity determination (MTT test, 7 days); assay type: cell-based
Experimental: (§1) Cytotoxicity and anti-HIV activity of the compounds (XVIa-c) described above were examined in CEM-T4 cells according procedures described below.
(§2) Cytotoxicity determination—CC50 and CC90 parameters—For determination of compounds (XVIa-c) cytotoxicity CEM-T4 and CEM-A were cultured in standard conditions (37° C., 5% CO2) on 96 wells culture plates in media RPMI/FCS 10% (v/v). Experiments were carried out in media contained tested compounds in concentrations of appropriate range. Cultures in neat medium (RPMI, 10% FCS) were used as a control ones. Viability of cells were determined after 7 days using MTT test in which to each well of culture plate were added 10 μL of MTT solution (5 mg/mL) and cultures were incubated 3 hours in temperature 37° C. After centrifugation supernatant was removed and DMSO was added to lyse the cells and to dissolve crystals of farmazan. Measurement of colour intensity was done using a plate reader (λ560 nm).
(§3) Cytotoxicity calculation—reference absorbancy (K) was an average of measurements for five well of culture plate and accounts for 100% CEM-T4 or CEM-A cells viability. In each case absorbancy for cells cultured in media enriched with tested compounds was calculated as average of at least three measurements.
(§4) Cells viability (P) were calculated according to formula:
(§5) [formula] in which P—viability of cells, K—reference absorbancy, A—absorbancy for cells cultured in media enriched with tested compounds, T—absorbancy for neat medium (RPMI/10% FBS). On the basis of calculations graph showing dependence of viability and concentrations of tested compounds values of CC50 and CC90 were determined

HIV [2] = assay: Anti-HIV activity (inhibition of HIV replication, viral protein p24) in CEM-T4 cells; assay type: cell-based; settings: for EC90: 90% inhibition of HIV replication; for SI50: selectivity index, CC50 vs EC50, CEM-T4 cells
Experimental: as §1
Anti HIV activity (EC50 and EC90)—parameter EC50 is defined as concentration of compounds in which replication of HIV is inhibited by 50% and parameter EC90 is defined as concentration of compounds in which replication of HIV is inhibited by 90%. To determine these parameters CEM-T4 cells were preincubated 24 hours in standard conditions (37° C., 5% CO2) in standard medium [RPMI, FCS 10% (v/v)] enriched with tested compounds in concentrations in range 0.001-20 μM. Incubations were performed with 96 flat bottom wells culture plates. In each well 20000 cells were suspended in solution of tested compound (200 μL). For each concentration four cultures were done. As a reference, media containing AZT in concentration 1.25 μM, 2.5 μM, 5.0 μM, 10.0 μM, 20 μM were used. As a positive control of maximal replication of HIV, culture in neat standard medium [RPMI/FCS 10% (v/v)] was used. After 24 hours of incubation in medium enriched with tested compound and AZT, cells were inoculated with known amount of HIV and cultivation was continued 8 days and after this the amount of viral protein p24 (marker of HIV replication) was measured. Inhibition of HIV replication is presented as percentage of p24 content in culture performed with media containing tested compound and assuming that amount of p24 measured in control correspond 100% of HIV replication. The examinations of each tested substance for each concentration were run in triplicate.

[3] = Cytotoxicity determination (MTT test, 7 days); assay type: cell-based; settings: human, CEM-T4 cells
Experimental: as §1, §2, §3, §4, §5

CEM-T4 cells [4] = settings: cited from earlier work
HIV [5] = system: HIV; parameters: SI50: unit not given beside the values; settings: *Estimated in cells CEM-T4; Baba M. et al. 1987; cited from earlier work
HIV [6] = system: HIV; parameters: SI50: unit not given beside the values; settings: **Imbach J-L. et al. 1994; cited from earlier work

For `Cc1cn([C@H]2C[C@H](N=[N+]=[N-])[C@@H](COP(=O)(O)Nc3ccncc3)O2)c(=O)[nH]c1=O` [(XVITc)], the CC50 (CEM-T4 cells [1]) was > 190000 nM, the CC90 (CEM-T4 cells [1]) was > 190000 nM and the EC90 (HIV [2]; CEM-T4 cells, p24 after 8 days) was 6 nM. For the same compound, the SI50 (HIV [2]) was >>19000.
Work on `Cc1cn([C@H]2C[C@H](N=[N+]=[N-])[C@@H](CO)O2)c(=O)[nH]c1=O` [AZT, 3′-azido-3′-deoxythymidine] yielded a CC50 at 7 days [3] of 60000 nM, an EC50 (HIV [2]; Human immunodeficiency virus 1, 192 h, CEM-T4 cells, 50% inhibition of HIV replication, p24 after 8 days) of 1.1 nM and an EC90 (HIV [2]; Human immunodeficiency virus 1, 192 h, CEM-T4 cells, p24 after 8 days) of 16 nM. It also gave an SI50 (HIV [2]) of 6000.
In the case of `Nc1ncnc2c1ncn2[C@H]1CC[C@@H](CO)O1` [ddA, 2′,3′-dideoxyadenosine], the CC50 (CEM-T4 cells [4]; *Estimated in cells CEM-T4, Baba M. et al. 1987) is given as > 250000 nM, the EC50 (HIV [5]) is given as 2500 nM and the SI50 (HIV [5]) is given as >>100*.
For `OC[C@@H]1CC[C@H](n2cnc3c(O)ncnc32)O1` [ddI, 2′,3′-dideoxyinosine], the EC50 (HIV [6]) is listed as 1100 nM and the SI50 (HIV [6]) is listed as >>91**.
In the case of `O=c1ccn([C@H]2CC[C@@H](CO)O2)c(=O)[nH]1` [ddU, 2′,3′-dideoxyuridine], the CC50 (CEM-T4 cells [4]) is listed as > 250000 nM, the EC50 (HIV [5]) is listed as 48000 nM and the SI50 (HIV [5]) is listed as >5.2*.
